Experimental data published in paper PMC5994430, “Mitochondrial Delivery of Phenol Substructure Triggers Mitochondrial Depolarization and Apoptosis of Cancer Cells” (Frontiers in Pharmacology, 2018).

Experiments:
Format in all cases: cell-based, Human
[1] = system: BEAS-2B cells; experiment: Mitochondrial depolarization (JC-1); details: 0.1 μM, 4 h
Protocol: (§1) Mitochondrial depolarization was measured by staining cells with the fluorescent probe JC-1 (Biotium Inc., Hayward, CA, United States), as described ([Riganti et al., 2015a]). The red fluorescence, index of polarized mitochondria, was detected at 550 nm (λ excitation) and 600 nm (λ emission); the green fluorescence, index of depolarized and damaged mitochondria, was detected at 485 nm (λ excitation) and 535 nm (λ emission). The fluorescence units were used to calculate the percentage of green-fluorescent versus red-fluorescent mitochondria.
(§2) [t] Continuedof three experiments with similar results. (D) Confocal analysis of mitochondrial staining with MitoTracker® Green FM. Magnification: 60 × objective (0.52 numerical aperture); 10 × ocular lens. Bar: 10 μM. The micrographs are representative of three experiments with similar results. (E,F) The electron transport was measured spectrophotometrically in duplicates. ATP levels in mitochondrial extracts was measured by a chemiluminescence-based assay, in duplicates. Data are means ± SD (n = 3). For both panels: ^∗p < 0.001 vs. A549 ctrl cells; °p < 0.001 for BEAS-2B cells vs. the corresponding condition in A549 cells. (G,H) ROS amount in mitochondrial extracts and mitochondrial damage were measured fluorimetrically, in duplicates. Data are means ± SD (n = 3). For both panels: ^∗p < 0.001 vs. A549 ctrl cells; °p < 0.001 for BEAS-2B cells vs. the corresponding condition in A549 cells. There were no statistically significant differences between untreated (ctrl) and compound 1/compound 2-treated BEAS-2B cells for all the parameters analyzed in this figure.

[2] = system: A549 cells; experiment: Mitochondrial depolarization (JC-1); details: 0.1 μM, 4 h
Protocol: as §1, §2

[3] = system: caspase 9; experiment: Caspase 9 activity in BEAS-2B cell lysates; details: 0.1 μM, 24 h
Protocol: (§3) The activity of caspase 9 and 3 was measured by incubating 20 μg cell lysates with the respective fluorogenic substrates Ac-LEHD-AMC (LEHD-AMC) or DEVD-AMC (DEVD-AMC), as reported ([Pinzón-Daza et al., 2012]). Results were expressed as nmoles AMC/mg protein.
(§4) FIGURE 7 Effects of phenol TPP-derivatives on mitochondria-dependent apoptosis. A549 and BEAS-2B cells were incubated 24 h in fresh medium (ctrl) or in medium containing 0.1 μM of 1 or 2. (A,B) The activity of caspase 9 and 3 was measured fluorimetrically, in duplicates. Data are means ± SD (n = 3). For both panels: ^∗p < 0.001 vs. A549 ctrl cells; °p < 0.001 for BEAS-2B cells vs. the corresponding condition in A549 cells. (C,D) Cell cycle distribution, measured in duplicates. Data are means ± SD (n = 3). For both panels: ^∗p < 0.001 vs. A549 ctrl cells: °p < 0.001 for BEAS-2B cells vs. the corresponding condition in A549 cells. (E) Bright field microscope analysis of cells. Magnification: 60 × objective (0.52 numerical aperture); 10 × ocular lens. Bar: 20 μM. The micrographs are representative of three experiments with similar results.

[4] = system: A549 cells; experiment: Mitochondrial mass (MitoTracker Green staining); details: 0.1 μM, 4 h
Protocol: The amount of proteins in mitochondrial extracts, normalized to the total amount of cellular proteins, was considered an index of mitochondrial mass ([Jean et al., 2015]). Mitochondria biogenesis was evaluated by measuring the expressions of subunit I of COX-I, which is encoded by mitochondrial DNA, and of the SDH-A of complex II, which is encoded by nuclear DNA, using the MitoBiogenesis^TM In-Cell ELISA Kit (Abcam), following the manufacturer’s instructions. The unit (U) of each protein/mg mitochondrial proteins were calculated. Results were expressed as COX-1/SDH-A ratio.
0.5 × 10^5 cells were grown on sterile glass coverslips. […] The samples were analyzed with an Olympus FV300 laser scanning confocal microscope equipped with a Blue Argon (488 nm) laser, a Green Helium Neon (543 nm) laser, and FluoView 300 software (Olympus Biosystems, Hamburg, Germany). […]
(§5) [t] […] (E,F) The electron transport was measured spectrophotometrically in duplicates. ATP levels in mitochondrial extracts was measured by a chemiluminescence-based assay, in duplicates. […] (G,H) ROS amount in mitochondrial extracts and mitochondrial damage were measured fluorimetrically, in duplicates. […] There were no statistically significant differences between untreated (ctrl) and compound 1/compound 2-treated BEAS-2B cells for all the parameters analyzed in this figure.

[5] = system: mitofusin 1 (MFN1) and mitofusin 2 (MFN2); experiment: qRT-PCR of mitofusin mRNA in A549 cells; details: 0.1 μM, 4 h
Protocol: Supplementary Figure 4 Effects of TPP-derivatives on mitofusin 1 and mitofusin 2 expression.
A549 and BEAS-2B cells were incubated 4 h in fresh medium (ctrl) or with 0.1 µM of 1 and 2.
Expression of mitofusin 1 (MFN1) and mitofusin 2 (MFN2) mRNA was evaluated by qRT-PCR in
triplicates. Data are means ± SD (n=3).
(1 picture or pasted object on this page, not shown here)

[6] = system: caspase 9; experiment: Caspase 9 activity in A549 cell lysates; details: 0.1 μM, 24 h
Protocol: as §3, §4

[7] = system: electron transport between complexes I and III; experiment: Electron transport chain in mitochondrial extracts of A549 cells; details: 0.1 μM, 4 h
Protocol: The electron transport between complexes I and III was measured in mitochondrial extracts, immediately after extract thawing, as detailed earlier ([Jean et al., 2015]). In particular, 10 μl of not-sonicated mitochondrial samples were re-suspended in 0.59 ml buffer C (5 mM KH2PO4, 5 mM MgCl2, 5% w/v BSA) and transferred into a quartz spectrophotometer cuvette. Then 0.38 ml buffer D (25% w/v saponin, 50 mM KH2PO4, 5 mM MgCl2, 5% w/v BSA, 0.12 mM cytochrome c-oxidized form, 0.2 mM NaN3) was added for 5 min at room temperature. The reaction was started with 0.15 mM NADH and was followed for 5 min, reading the absorbance at 550 nm by a Lambda 3 spectrophotometer (PerkinElmer, Waltham, MA, United States). The results were expressed as nmoles reduced cytochrome c/min/mg mitochondrial proteins. […]
as §5

[8] = system: caspase 3; experiment: Caspase 3 activity in BEAS-2B cell lysates; details: 0.1 μM, 24 h
Protocol: as §3, §4

Row | SMILES | mitochondrial depolarization [1] | percentage of depolarized mitochondria [2] | activity of caspase 9 [3] | mitochondrial mass [4] | expression of mitofusin 1 (MFN1) and mitofusin 2 (MFN2) [5] | activity of caspase 9 [6] | rate of electron transport [7] | activity of caspase 3 [8]
1 | CC(=O)Oc1ccc(C[P+](c2ccccc2)(c2ccccc2)c2ccccc2)cc1.[Br-] [Compound 1] | negligible modifications | acutely increased | remained similar to untreated cells | reduced the mitochondrial mass | no changes | strong activation | significant decrease | remained similar to untreated cells
2 | O=C(Oc1ccc(C[P+](c2ccccc2)(c2ccccc2)c2ccccc2)cc1C(F)(F)F)c1ccccc1.[Br-] [Compound 2] | negligible modifications | acutely increased | remained similar to untreated cells | reduced the mitochondrial mass | no changes | strong activation | significant decrease | remained similar to untreated cells
